# Test results from PubChem BioAssay (NCI).
#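 All cell lines were grown in 96-well plates and treated with compound for 48 hours. GI50 marks 50% less growth. TGI: concentration producing complete growth inhibition.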
# Assays:
# Experiment in all cases: DTP human tumour cell line panel, 48 h
# SNB-19 CNS = system: SNB-19 CNS
# OVCAR-8 ovarian = system: OVCAR-8 ovarian
# OVCAR-4 ovarian = system: OVCAR-4 ovarian
# MOLT-4 leukemia = system: MOLT-4 leukemia
# HOP-62 NSCLC = system: HOP-62 NSCLC
# TK-10 renal = system: TK-10 renal
# HCC-2998 colon = system: HCC-2998 colon
# SN12C renal = system: SN12C renal
# SW-620 colon = system: SW-620 colon
# T-47D breast = system: T-47D breast
SMILES,TGI (SNB-19 CNS),TGI (OVCAR-8 ovarian),TGI (OVCAR-4 ovarian),TGI (MOLT-4 leukemia),TGI (HOP-62 NSCLC),TGI (TK-10 renal),TGI (HCC-2998 colon),TGI (SN12C renal),TGI (SW-620 colon),GI50 (SNB-19 CNS),GI50 (OVCAR-8 ovarian),GI50 (OVCAR-4 ovarian),GI50 (MOLT-4 leukemia),GI50 (HOP-62 NSCLC),GI50 (TK-10 renal),GI50 (T-47D breast),TGI (T-47D breast),GI50 (SN12C renal),GI50 (SW-620 colon)
CCCCCCCC(=O)OCC1OC(n2cc(F)c(=O)[nH]c2=O)C(N)C(OC(=O)CCCCCCC)C1O (centres undefined),32 µM,31.6 µM,29 µM,33.6 µM,32.5 µM,56.9 µM,35.3 µM,32.5 µM,33.6 µM,–,–,–,–,–,–,–,–,–,–
CC(=O)N/C(=C\c1ccccc1/C=C(\NC(C)=O)c1nc2cc(C)c(C)cc2[nH]1)c1nc2cc(C)c(C)cc2[nH]1,> 100 µM,40.9 µM,–,97.4 µM,68.6 µM,> 100 µM,–,35.3 µM,64.7 µM,–,–,–,–,–,–,–,–,–,–
O=c1[nH]c(O)c(C=Nc2ccc(-c3nc4ccccc4o3)cc2)c(=O)[nH]1,> 100 µM,> 100 µM,> 100 µM,> 100 µM,> 100 µM,> 100 µM,–,> 100 µM,> 100 µM,> 100 µM,25.8 µM,33 µM,> 100 µM,> 100 µM,40.6 µM,93.7 µM,> 100 µM,> 100 µM,40.6 µM
CNc1nc(N)nc(Nc2ccc(I)cc2)c1N=O,> 100 µM,> 100 µM,–,> 100 µM,> 100 µM,> 100 µM,> 100 µM,> 100 µM,> 100 µM,–,–,–,–,–,–,–,–,–,–
C[N+](C)(C)CC(=O)N/N=C(/Cc1cc(=O)oc2cc(O)ccc12)C(=O)Nc1ccc(Cl)cc1,> 100 µM,> 100 µM,> 100 µM,> 100 µM,> 100 µM,> 100 µM,> 100 µM,> 100 µM,> 100 µM,–,–,–,–,–,–,–,–,–,–
NC(N)=Nc1nc2ccccc2o1,> 100 µM,> 100 µM,> 100 µM,> 100 µM,> 100 µM,> 100 µM,–,> 100 µM,> 100 µM,> 100 µM,49.2 µM,> 100 µM,> 100 µM,> 100 µM,> 100 µM,> 100 µM,> 100 µM,> 100 µM,> 100 µM
O=C1C/C(Br)=C\c2ccccc2-c2ccccc21,19.5 µM,5.41 µM,7.88 µM,7.81 µM,9.67 µM,14.5 µM,19.3 µM,4.8 µM,2.98 µM,–,–,–,–,–,–,–,–,–,–
CCOc1ccc(NC(=O)CC2SC(=Nc3ccc(C)cc3C)NC2=O)cc1 (centres undefined),> 100 µM,> 100 µM,> 100 µM,65 µM,–,> 100 µM,> 100 µM,> 100 µM,> 100 µM,–,–,–,–,–,–,–,–,–,–
CC1=C(C(=O)Nc2ccccc2)C(c2ccc(Cl)c(Cl)c2)C(C(=O)Nc2ccccc2)=C(C)N1,32.6 µM,27.9 µM,27.7 µM,3.04 µM,28.6 µM,75.2 µM,–,28.5 µM,34.7 µM,–,–,–,–,–,–,–,–,–,–
CCSc1nc(N=Cc2ccccc2O)c2cn[nH]c2n1,> 100 µM,> 100 µM,> 100 µM,> 100 µM,> 100 µM,36.6 µM,–,95.1 µM,> 100 µM,56.1 µM,48.8 µM,35 µM,52.8 µM,54.5 µM,9.67 µM,33.4 µM,> 100 µM,26.3 µM,38.4 µM
O=S(=O)(OI(OI(OS(=O)(=O)C(F)(F)F)c1ccccc1)c1ccccc1)C(F)(F)F,> 100 µM,> 100 µM,–,> 100 µM,> 100 µM,> 100 µM,> 100 µM,> 100 µM,> 100 µM,–,–,–,–,–,–,–,–,–,–
O=Cc1cc2c(cc1-c1cc3c(cc1C=O)OCO3)OCO2,> 100 µM,> 100 µM,> 100 µM,> 100 µM,> 100 µM,> 100 µM,> 100 µM,> 100 µM,> 100 µM,–,–,–,–,–,–,–,–,–,–
O=c1[nH]c(=O)n(C2CC(O)C(CO)O2)cc1OS(=O)(=O)C(F)(F)F (centres undefined),> 100 µM,> 100 µM,> 100 µM,> 100 µM,> 100 µM,> 100 µM,> 100 µM,> 100 µM,> 100 µM,–,–,–,–,–,–,–,–,–,–
O/N=C1\CCCCC1C(NO)c1ccccc1 (centres undefined),> 100 µM,> 100 µM,> 100 µM,> 100 µM,> 100 µM,> 100 µM,> 100 µM,> 100 µM,> 100 µM,–,–,–,–,–,–,–,–,–,–
c1ccc2c(c1)CCc1c(-c3ccncc3)n[nH]c1-2,> 100 µM,88.6 µM,–,85.4 µM,> 100 µM,> 100 µM,94.2 µM,> 100 µM,> 100 µM,–,–,–,–,–,–,–,–,–,–
COc1cc(C[P+](c2ccccc2)(c2ccccc2)c2ccccc2)cc(OC)c1OC,> 100 µM,> 100 µM,> 100 µM,–,> 100 µM,> 100 µM,> 100 µM,> 100 µM,> 100 µM,–,–,–,–,–,–,–,–,–,–
COC(=N)c1csc(C2OC(CO)C(O)C2O)n1 (centres undefined),> 100 µM,> 100 µM,> 100 µM,> 100 µM,> 100 µM,> 100 µM,> 100 µM,> 100 µM,> 100 µM,–,–,–,–,–,–,–,–,–,–
CCCN(CCC)c1c([N+](=O)[O-])cc(C(=O)N(CC)CC)cc1[N+](=O)[O-],> 100 µM,69 µM,–,50 µM,> 100 µM,76.8 µM,> 100 µM,> 100 µM,84.1 µM,–,–,–,–,–,–,–,–,–,–
CCOC(=O)C(Br)=C1OC(=O)c2ccccc2-c2ccccc21 (mixture of isomers),–,75.8 µM,–,47.6 µM,37.4 µM,49 µM,38 µM,56.4 µM,35.1 µM,–,–,–,–,–,–,–,–,–,–
CCCCCCCCc1cc2c(O)c(c1)Cc1cc(CCCCCCCC)cc(c1O)Cc1cc(CCCCCCCC)cc(c1O)Cc1cc(CCCCCCCC)cc(c1O)Cc1cc(CCCCCCCC)cc(c1O)Cc1cc(CCCCCCCC)cc(c1O)C2,> 100 µM,> 100 µM,–,> 100 µM,–,> 100 µM,> 100 µM,> 100 µM,> 100 µM,–,–,–,–,–,–,–,–,–,–
FC(F)(F)c1ccc2nc(NCc3ccccc3)c(-c3ccccc3)nc2c1,> 100 µM,> 100 µM,–,72.5 µM,> 100 µM,> 100 µM,> 100 µM,> 100 µM,> 100 µM,–,–,–,–,–,–,–,–,–,–
Nc1c(S(=O)(=O)c2ccc(Cl)cc2)c2nc3ccccc3nc2n2ccnc12,> 100 µM,> 100 µM,33.3 µM,> 100 µM,–,78.2 µM,> 100 µM,> 100 µM,–,–,–,–,–,–,–,–,–,–,–
